# According to ChEMBL document CHEMBL1147216, “Parallel synthesis and SAR study of novel oxa-steroids as potent and selective progesterone receptor antagonists” (Bioorg Med Chem Lett, 2007):
# Assays:
# Glucocorticoid receptor = target: T1, Glucocorticoid receptor (Homo sapiens, UniProt P04150); test: Antagonist activity at human glucocorticoid receptor assessed as inhibition of corticoid-induced transcription in human A549 cells by GRE-linked luciferase reporter gene assay; assay type: functional, cell-based
# T1 sequence (P04150 whole entry): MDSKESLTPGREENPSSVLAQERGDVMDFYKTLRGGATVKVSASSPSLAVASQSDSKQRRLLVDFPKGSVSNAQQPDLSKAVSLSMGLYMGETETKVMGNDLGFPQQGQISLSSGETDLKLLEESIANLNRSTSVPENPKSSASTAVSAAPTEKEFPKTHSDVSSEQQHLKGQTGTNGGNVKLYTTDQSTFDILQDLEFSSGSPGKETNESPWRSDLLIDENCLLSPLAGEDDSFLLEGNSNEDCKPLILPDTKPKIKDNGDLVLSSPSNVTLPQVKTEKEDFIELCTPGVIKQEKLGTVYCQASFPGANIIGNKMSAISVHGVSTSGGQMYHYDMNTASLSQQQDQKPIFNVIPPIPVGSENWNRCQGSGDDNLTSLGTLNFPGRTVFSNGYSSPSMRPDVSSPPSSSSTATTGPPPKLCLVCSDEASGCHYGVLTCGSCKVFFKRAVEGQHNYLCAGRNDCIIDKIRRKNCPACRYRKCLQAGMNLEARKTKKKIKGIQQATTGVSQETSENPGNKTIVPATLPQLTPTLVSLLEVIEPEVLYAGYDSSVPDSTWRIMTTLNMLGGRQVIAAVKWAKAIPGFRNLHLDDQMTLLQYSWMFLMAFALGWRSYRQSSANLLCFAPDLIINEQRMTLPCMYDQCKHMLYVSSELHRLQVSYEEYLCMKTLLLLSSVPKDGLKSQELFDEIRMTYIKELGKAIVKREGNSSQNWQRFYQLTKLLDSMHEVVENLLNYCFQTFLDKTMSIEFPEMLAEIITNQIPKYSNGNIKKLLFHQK
# Progesterone receptor = target: T2, Progesterone receptor (Homo sapiens, UniProt P06401); test: Antagonist activity at human progesterone receptor assessed as inhibition of alkaline phosphatase activity in human T47D cells; assay type: functional, cell-based
# T2 sequence (P06401 whole entry): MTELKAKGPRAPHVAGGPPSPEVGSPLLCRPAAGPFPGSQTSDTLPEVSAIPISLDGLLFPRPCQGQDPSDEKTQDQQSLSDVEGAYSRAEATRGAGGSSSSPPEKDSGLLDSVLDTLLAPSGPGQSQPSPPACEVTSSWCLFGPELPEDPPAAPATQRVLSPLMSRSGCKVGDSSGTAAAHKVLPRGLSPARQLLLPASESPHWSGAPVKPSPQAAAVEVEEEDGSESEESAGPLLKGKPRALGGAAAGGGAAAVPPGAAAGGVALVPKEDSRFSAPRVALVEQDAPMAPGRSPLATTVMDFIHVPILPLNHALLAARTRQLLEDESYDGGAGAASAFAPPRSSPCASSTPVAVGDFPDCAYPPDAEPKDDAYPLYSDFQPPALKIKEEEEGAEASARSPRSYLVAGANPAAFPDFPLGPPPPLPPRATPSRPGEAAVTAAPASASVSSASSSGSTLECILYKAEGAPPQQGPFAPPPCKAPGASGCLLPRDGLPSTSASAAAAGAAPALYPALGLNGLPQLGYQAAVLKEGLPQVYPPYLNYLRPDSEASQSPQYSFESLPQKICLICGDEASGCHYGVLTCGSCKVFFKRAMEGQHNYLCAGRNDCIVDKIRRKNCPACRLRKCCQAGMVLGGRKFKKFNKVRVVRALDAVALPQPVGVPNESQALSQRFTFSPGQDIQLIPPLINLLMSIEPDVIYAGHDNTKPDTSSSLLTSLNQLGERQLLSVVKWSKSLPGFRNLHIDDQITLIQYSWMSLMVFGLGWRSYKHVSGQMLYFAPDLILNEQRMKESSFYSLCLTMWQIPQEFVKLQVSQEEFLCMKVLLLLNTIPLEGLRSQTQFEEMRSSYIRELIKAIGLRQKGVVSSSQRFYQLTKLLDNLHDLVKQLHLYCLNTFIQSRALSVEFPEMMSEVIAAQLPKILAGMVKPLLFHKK
# Homo sapiens = species on record: Homo sapiens; test: Selectivity of human progesterone receptor over human glucocorticoid receptor
Structure (SMILES),IC50 (Glucocorticoid receptor) [nM],IC50 (Progesterone receptor) [nM],Ratio IC50 (Homo sapiens)
CN(C)c1ccc([C@H]2C[C@@]3(C)[C@@H](CC[C@@]3(O)C#Cc3ccc(C(F)(F)F)cc3)[C@@H]3OCC4=CC(=O)CCC4=C32)cc1,111,0.75,148
CN(C)c1ccc([C@H]2C[C@@]3(C)[C@@H](CC[C@@]3(O)C#Cc3ccccn3)[C@@H]3OCC4=CC(=O)CCC4=C32)cc1,175,34,5
CN(C)c1ccc([C@H]2C[C@@]3(C)[C@@H](CC[C@@]3(O)C#Cc3cccnc3)[C@@H]3OCC4=CC(=O)CCC4=C32)cc1,342,21,16
CN(C)c1ccc([C@H]2C[C@@]3(C)[C@@H](CC[C@@]3(O)C#Cc3ccccc3Cl)[C@@H]3OCC4=CC(=O)CCC4=C32)cc1,64.8,1.1,59
CN(C)c1ccc([C@H]2C[C@@]3(C)[C@@H](CC[C@@]3(O)C#Cc3ccc(Br)cc3)[C@@H]3OCC4=CC(=O)CCC4=C32)cc1,31.3,0.94,33
CN(C)c1ccc([C@H]2C[C@@]3(C)[C@@H](CC[C@@]3(O)C#Cc3ccccc3Br)[C@@H]3OCC4=CC(=O)CCC4=C32)cc1,62.7,8.6,7
COc1ccc(C#C[C@]2(O)CC[C@H]3[C@@H]4OCC5=CC(=O)CCC5=C4[C@@H](c4ccc(N(C)C)cc4)C[C@@]32C)cc1,80.3,3.2,25
CN(C)c1ccc([C@H]2C[C@@]3(C)[C@@H](CC[C@@]3(O)C#Cc3ccncc3)[C@@H]3OCC4=CC(=O)CCC4=C32)cc1,247,39,6
CN(C)c1ccc([C@H]2C[C@@]3(C)[C@@H](CC[C@@]3(O)C#Cc3cccc(Cl)c3)[C@@H]3OCC4=CC(=O)CCC4=C32)cc1,48.9,12.5,4
Cc1ccccc1C#C[C@]1(O)CC[C@H]2[C@@H]3OCC4=CC(=O)CCC4=C3[C@@H](c3ccc(N(C)C)cc3)C[C@@]21C,113,5.8,20
CN(C)c1ccc([C@H]2C[C@@]3(C)[C@@H](CC[C@@]3(O)C#Cc3ccc(C#N)cc3)[C@@H]3OCC4=CC(=O)CCC4=C32)cc1,41.3,3.7,11
CN(C)c1ccc([C@H]2C[C@@]3(C)[C@@H](CC[C@@]3(O)C#Cc3ccc(C(C)(C)C)cc3)[C@@H]3OCC4=CC(=O)CCC4=C32)cc1,65.8,19.5,3
CN(C)c1ccc([C@H]2C[C@@]3(C)[C@@H](CC[C@@]3(O)C#Cc3ccsc3)[C@@H]3OCC4=CC(=O)CCC4=C32)cc1,56,1.6,35
CN(C)c1ccc([C@H]2C[C@@]3(C)[C@@H](CC[C@@]3(O)C#Cc3ccccc3F)[C@@H]3OCC4=CC(=O)CCC4=C32)cc1,65.1,1.4,47
CN(C)c1ccc([C@H]2C[C@@]3(C)[C@@H](CC[C@@]3(O)C#Cc3cccc(F)c3)[C@@H]3OCC4=CC(=O)CCC4=C32)cc1,56.6,1,57
CN(C)c1ccc([C@H]2C[C@@]3(C)[C@@H](CC[C@@]3(O)C#Cc3ccccc3C(F)(F)F)[C@@H]3OCC4=CC(=O)CCC4=C32)cc1,51,3.2,16
Cc1ccc(C#C[C@]2(O)CC[C@H]3[C@@H]4OCC5=CC(=O)CCC5=C4[C@@H](c4ccc(N(C)C)cc4)C[C@@]32C)cc1,22.1,1.6,14
CN(C)c1ccc([C@H]2C[C@@]3(C)[C@@H](CC[C@@]3(O)C#Cc3cc(F)cc(F)c3)[C@@H]3OCC4=CC(=O)CCC4=C32)cc1,34.4,0.91,38
CN(C)c1ccc([C@H]2C[C@@]3(C)[C@@H](CC[C@@]3(O)C#Cc3ccccc3)[C@@H]3OCC4=CC(=O)CCC4=C32)cc1,,,217
CN(C)c1ccc([C@H]2C[C@@]3(C)[C@@H](CC[C@@]3(O)C#Cc3ccc(Cl)cc3)[C@@H]3OCC4=CC(=O)CCC4=C32)cc1,43.5,0.61,71
CN(C)c1ccc([C@H]2C[C@@]3(C)[C@@H](CC[C@@]3(O)C#Cc3cccc(C(F)(F)F)c3)[C@@H]3OCC4=CC(=O)CCC4=C32)cc1,45.4,2.7,17
Cc1cccc(C#C[C@]2(O)CC[C@H]3[C@@H]4OCC5=CC(=O)CCC5=C4[C@@H](c4ccc(N(C)C)cc4)C[C@@]32C)c1,36.3,2.9,13
CN(C)c1ccc([C@H]2C[C@@]3(C)[C@@H](CC[C@@]3(O)C#Cc3ccc(F)cc3)[C@@H]3OCC4=CC(=O)CCC4=C32)cc1,37.6,0.27,139
CC#C[C@]1(O)CC[C@H]2[C@@H]3OCC4=CC(=O)CCC4=C3[C@@H](c3ccc(N(C)C)cc3)C[C@@]21C,,,12
